Values of other authors in patent US6262080A, “3-(thio-substitutedamido)-lactams useful as inhibitors of matrix metalloproteinase” (Avantis Pharmaceuticals Inc., priority 1999, dated 2001).

Tested on: B16-BL6 murine melanoma
Conditions: intraperitoneal administration; lung colonies produced by intravenous injection of B16-BL6 murine melanoma in C57BL/6N mice

CNC(=O)[C@H](Cc1ccccc1)NC(=O)[C@H](CC(C)C)[C@H](CSc1cccs1)C(=O)NO [batimastat]
growth and metastatic spread and number of lung colonies: significant inhibition
